In ChEMBL document CHEMBL1772964, “Structural requirements of flavonoids for the adipogenesis of 3T3-L1 cells” (Bioorg Med Chem, 2011):

What was measured:
[1] = test system: 3T3-L1; test: Induction of insulin-stimulated 2-deoxy-D- 2,6-[3H]-glucose uptake in differentiated mouse 3T3L1 cells at 10 uM compound treated for 20 mins with insulin by liquid scintillation counting (reference value: 100.0 %); type: functional
[2] = test system: 3T3-L1; test: Induction of insulin-stimulated 2-deoxy-D- 2,6-[3H]-glucose uptake in differentiated mouse 3T3L1 cells at 30 uM compound treated for 20 mins with insulin by liquid scintillation counting (reference value: 100.0 %); type: functional
[3] = test system: 3T3-L1; test: Inhibition of insulin-stimulated 2-deoxy-D- 2,6-[3H]-glucose uptake in differentiated mouse 3T3L1 cells compound treated for 20 mins with insulin by liquid scintillation counting (reference value: 100.0 %); type: functional, cell-based
[4] = test system: 3T3-L1; test: Induction of adipogenesis in mouse 3T3L1 cells assessed as increase in triglyceride level at 1 uM on day 8 relative to control; type: functional
[5] = test system: 3T3-L1; test: Induction of adipogenesis in mouse 3T3L1 cells assessed as increase in triglyceride level at 3 uM on day 8 relative to control; type: functional
[6] = test system: 3T3-L1; test: Induction of adipogenesis in mouse 3T3L1 cells assessed as increase in triglyceride level at 10 uM on day 8 relative to control; type: functional
[7] = test system: 3T3-L1; test: Induction of adipogenesis in mouse 3T3L1 cells assessed as increase in triglyceride level at 30 uM on day 8 relative to control; type: functional
[8] = test system: 3T3-L1; test: Effect on C/EBPdelta mRNA expression in mouse 3T3L1 cells at 3 uM on day 8 by RT-PCR relative to beta-actin mRNA expression; type: functional
[9] = test system: 3T3-L1; test: Effect on C/EBPdelta mRNA expression in mouse 3T3L1 cells at 10 uM on day 8 by RT-PCR relative to beta-actin mRNA expression; type: functional
[10] = test system: 3T3-L1; test: Effect on C/EBPdelta mRNA expression in mouse 3T3L1 adipocytes at 30 uM on day 8 by RT-PCR relative to beta-actin mRNA expression; type: functional
[11] = test system: 3T3-L1; test: Induction of insulin-stimulated 2-deoxy-D- 2,6-[3H]-glucose uptake in mouse 3T3L1 cells chronically treated at 10 uM by liquid scintillation counting (reference value: 100.0 %); type: functional
[12] = test system: 3T3-L1; test: Induction of insulin-stimulated 2-deoxy-D- 2,6-[3H]-glucose uptake in mouse 3T3L1 cells chronically treated at 30 uM by liquid scintillation counting (reference value: 100.0 %); type: functional
[13] = test system: 3T3-L1; test: Effect on adiponectin mRNA expression in mouse 3T3L1 cells at 3 uM on day 8 by RT-PCR relative to beta-actin mRNA expression; type: functional
[14] = test system: 3T3-L1; test: Effect on adiponectin mRNA expression in mouse 3T3L1 cells at 30 uM on day 8 by RT-PCR relative to beta-actin mRNA expression; type: functional
[15] = test system: 3T3-L1; test: Effect on adiponectin mRNA expression in mouse 3T3L1 cells at 10 uM on day 8 by RT-PCR relative to beta-actin mRNA expression; type: functional
[16] = test system: 3T3-L1; test: Effect on PPARgamma2 mRNA expression in mouse 3T3L1 cells at 3 uM on day 8 by RT-PCR relative to beta-actin mRNA expression; type: functional
[17] = test system: 3T3-L1; test: Effect on PPARgamma2 mRNA expression in mouse 3T3L1 cells at 10 uM on day 8 by RT-PCR relative to beta-actin mRNA expression; type: functional
[18] = test system: 3T3-L1; test: Effect on PPARgamma2 mRNA expression in mouse 3T3L1 cells at 30 uM on day 8 by RT-PCR relative to beta-actin mRNA expression; type: functional
[19] = test system: 3T3-L1; test: Effect on GlUT4 mRNA expression in mouse 3T3L1 cells at 3 uM on day 8 by RT-PCR relative to beta-actin mRNA expression; type: functional
[20] = test system: 3T3-L1; test: Effect on GlUT4 mRNA expression in mouse 3T3L1 cells at 10 uM on day 8 by RT-PCR relative to beta-actin mRNA expression; type: functional
[21] = test system: 3T3-L1; test: Effect on GlUT4 mRNA expression in mouse 3T3L1 cells at 30 uM on day 8 by RT-PCR relative to beta-actin mRNA expression; type: functional
[22] = test system: 3T3-L1; test: Effect on aP2 mRNA expression in mouse 3T3L1 cells at 3 uM on day 8 by RT-PCR relative to beta-actin mRNA expression; type: functional
[23] = test system: 3T3-L1; test: Effect on aP2 mRNA expression in mouse 3T3L1 cells at 10 uM on day 8 by RT-PCR relative to beta-actin mRNA expression; type: functional
[24] = test system: 3T3-L1; test: Effect on aP2 mRNA expression in mouse 3T3L1 cells at 30 uM on day 8 by RT-PCR relative to beta-actin mRNA expression; type: functional
[25] = test system: 3T3-L1; test: Effect on C/EBPalpha mRNA expression in mouse 3T3L1 cells at 3 uM on day 8 by RT-PCR relative to beta-actin mRNA expression; type: functional
[26] = test system: 3T3-L1; test: Effect on C/EBPalpha mRNA expression in mouse 3T3L1 cells at 10 uM on day 8 by RT-PCR relative to beta-actin mRNA expression; type: functional
[27] = test system: 3T3-L1; test: Effect on C/EBPalpha mRNA expression in mouse 3T3L1 cells at 30 uM on day 8 by RT-PCR relative to beta-actin mRNA expression; type: functional
[28] = test system: 3T3-L1; test: Effect on C/EBPbeta mRNA expression in mouse 3T3L1 cells at 3 uM on day 8 by RT-PCR relative to beta-actin mRNA expression; type: functional
[29] = test system: 3T3-L1; test: Effect on C/EBPbeta mRNA expression in mouse 3T3L1 cells at 10 uM on day 8 by RT-PCR relative to beta-actin mRNA expression; type: functional
[30] = test system: 3T3-L1; test: Effect on C/EBPbeta mRNA expression in mouse 3T3L1 cells at 30 uM on day 8 by RT-PCR relative to beta-actin mRNA expression; type: functional
[31] = test system: 3T3-L1; test: Induction of adipogenesis in mouse 3T3L1 cells assessed as increase in triglyceride level on day 8; type: functional, cell-based
[32] = test system: 3T3-L1; test: Induction of adipogenesis in mouse 3T3L1 cells assessed as increase in triglyceride level at 0.3 uM on day 8 relative to control; type: functional
[33] = test system: 3T3-L1; test: Induction of adiponectin protein secretion in mouse 3T3L1 cells at 1 uM on day 8 by ELISA relative to control; type: functional
[34] = test system: 3T3-L1; test: Induction of adiponectin protein secretion in mouse 3T3L1 cells at 3 uM on day 8 by ELISA relative to control; type: functional
[35] = test system: 3T3-L1; test: Induction of adiponectin protein secretion in mouse 3T3L1 cells at 10 uM on day 8 by ELISA relative to control; type: functional
[36] = test system: 3T3-L1; test: Induction of adiponectin protein secretion in mouse 3T3L1 cells at 30 uM on day 8 by ELISA relative to control; type: functional
[37] = test system: 3T3-L1; test: Induction of insulin-stimulated 2-deoxy-D- 2,6-[3H]-glucose uptake in mouse 3T3L1 cells chronically treated at 1 uM by liquid scintillation counting (reference value: 100.0 %); type: functional
[38] = test system: 3T3-L1; test: Cytotoxicity in mouse 3T3L1 cells assessed as reduction in triglyceride accumulation at 30 uM; type: cell-based; conditions: 3t3-l1, 30 µM

SMILES: O=c1c(O)c(-c2ccc(O)cc2)oc2cc(O)cc(O)c12 [KAEMPFEROL]
- Activity [1]: 30.3%
- Activity [2]: 12.7%
- inhibition [3]: Dose-dependent effect
- Activity [4]: 6.2%
- Activity [5]: 5.9%
- Activity [6]: 0.3%
- Activity [7]: 3.7%

SMILES: COc1ccc(-c2oc3cc(OC)cc(OC)c3c(=O)c2OC)cc1 [TETRAMETHYLKAEMPFEROL]
- Ratio [8]: 0.89
- Ratio [9]: 1.23
- Ratio [10]: 0.77
- Activity [11]: 163.1%
- Activity [12]: 135.8%
- Activity [1]: 62.7%
- Activity [2]: 46%
- Ratio [13]: 1.81
- Ratio [14]: 2.9
- Ratio [15]: 2.05
- Ratio [16]: 1.67
- Ratio [17]: 1.81
- Ratio [18]: 2.11
- Ratio [19]: 2.38
- Ratio [20]: 2.54
- Ratio [21]: 2.61
- Ratio [22]: 1.53
- Ratio [23]: 2.02
- Ratio [24]: 2.24
- Ratio [25]: 1.88
- Ratio [26]: 2.08
- Ratio [27]: 1.82
- Ratio [28]: 1.34
- Ratio [29]: 1.89
- Ratio [30]: 3.14
- Activity [31]: Dose-dependent effect
- Activity [32]: 10.1%
- Activity [4]: 19.1%
- Activity [5]: 24.1%
- Activity [6]: 28.2%
- Activity [7]: 33.7%
- Activity [33]: 144.6%
- Activity [34]: 149.5%
- Activity [35]: 164.7%
- Activity [36]: 136.7%
- Activity [37]: 146.5%

SMILES: COc1ccc(-c2oc3cc(OC)cc(O)c3c(=O)c2OC)cc1
- Activity [11]: 118.9%
- Activity [12]: 113.6%
- Activity [1]: 69.8%
- Activity [2]: 60.1%
- Activity [31]: Dose-dependent effect
- Activity [32]: 9.3%
- Activity [4]: 21.7%
- Activity [5]: 20.8%
- Activity [6]: 22.5%
- Activity [7]: 23%
- Activity [33]: 119.7%
- Activity [34]: 125.3%
- Activity [35]: 123.3%
- Activity [36]: 131.9%
- Activity [37]: 108.5%

SMILES: COc1cc(OC)c2c(=O)c(OC)c(-c3ccc(OC)c(OC)c3)oc2c1
- Ratio [8]: 1.54
- Ratio [9]: 1.93
- Ratio [10]: 2.34
- Activity [11]: 152.9%
- Activity [12]: 127.3%
- Activity [1]: 65.5%
- Activity [2]: 35.9%
- Ratio [13]: 1.67
- Ratio [14]: 2.59
- Ratio [15]: 1.91
- Ratio [16]: 1.84
- Ratio [17]: 1.99
- Ratio [18]: 2.42
- Ratio [19]: 2.01
- Ratio [20]: 2.25
- Ratio [21]: 3.62
- Ratio [22]: 1.34
- Ratio [23]: 1.59
- Ratio [24]: 2.1
- Ratio [25]: 1.79
- Ratio [26]: 1.5
- Ratio [27]: 1.38
- Ratio [28]: 1.73
- Ratio [29]: 3.01
- Ratio [30]: 3.82
- Activity [31]: Dose-dependent effect
- Activity [32]: 9.4%
- Activity [4]: 17.7%
- Activity [5]: 26.2%
- Activity [6]: 27%
- Activity [7]: 27.4%
- Activity [33]: 137.8%
- Activity [34]: 156.8%
- Activity [35]: 131.4%
- Activity [36]: 128.1%
- Activity [37]: 129.9%

SMILES: O=c1c(O)c(-c2ccccc2)oc2ccccc12 [FLAVONOL]
- Activity [38]: Toxic
- Activity [4]: -12.6%
- Activity [5]: -10%
- Activity [6]: -17.6%
- Activity [7]: -31.6%

SMILES: COc1ccc(-c2cc(=O)c3c(OC)cc(OC)cc3o2)cc1 [TRIMETHYLAPIGENIN]
- Activity [38]: Toxic
- Activity [32]: 5.6%
- Activity [4]: 16.7%
- Activity [5]: 14.1%
- Activity [6]: -17.2%
- Activity [7]: -83%

SMILES: Cc1c(C)c2c(c(C)c1O)CCC(C)(COc1ccc(CC3SC(=O)NC3=O)cc1)O2 (stereo not given) [TROGLITAZONE]
- Activity [32]: 31.9%
- Activity [4]: 35.8%
- Activity [5]: 34.6%
- Activity [6]: 28.1%
- Activity [34]: 166.4%
